Results from PMC12590356, “Novel pyrrolo[2,1-a]isoquinoline aryl ketones attenuate carbon nanotube-induced acute lung injury through NF-κB pathway inhibition” (RSC Advances, 2025).
“Also recorded” adds a separate entry of the source.

Columns and labels:
[1] = test system: SWCNT-induced ALI mice; test: Complete blood count in SWCNT-induced ALI mice; type: in vivo, C57BL/6 mice; conditions: 50 mg/kg once a day for 3 d, p < 0.01 vs. model
Source text: To explore the immunomodulatory effects of 3g and 3k, we conducted an analysis of systemic inflammatory responses in mice with SWCNT-induced ALI by employing hematological profiling. During inflammatory responses, immune activation induces cytokine production and modulates leukocyte trafficking dynamics. […] Mechanistically, the proliferation of LY is initiated in response to inflammatory stimuli as a means to combat infection. […] Consequently, this leads to a diminished requirement for the continuous mobilization of LY. These findings highlight the anti-inflammatory and immunomodulatory properties of pyrrolo[2,1-a]isoquinoline derivatives in mitigating SWCNT-induced pulmonary injury.
(§1) Based on the results of the previous in vitro experiments, 3g and 3k were chosen for animal experiments. 3g was dissolved in 5% DMSO and 3k was dissolved in 0.5% sodium carboxymethyl cellulose (CMC-Na). Male C57BL/6 mice were randomly divided into four groups of ten animals each: CON, single-walled carbon nanotubes (SWCNT) model, 3k (50 mg kg^−1) + SWCNT, 3g (50 mg kg^−1) + SWCNT. […]
Blood samples were extracted from the eyeballs of each experimental mouse cohort to obtain comprehensive whole blood specimens. Complete blood count (CBC) and differential leukocyte count (DLC) were determined using an automatic blood cell analyzer (Mindray CAL 6000, China).

[2] = test system: IL-6; test: IL-6 secretion in LPS-stimulated RAW264.7 macrophages (ELISA); type: cell-based, murine; conditions: LPS (0.5 μg/mL)-stimulated RAW264.7 cells, 5, 20, 40 μM, 24 h
Method: (§2) To elucidate the anti-inflammatory mechanisms underlying 3g and 3k, we conducted a comprehensive investigation into their impact on the secretion of pro-inflammatory cytokines, employing an LPS-stimulated RAW264.7 macrophage model. TNF-α and IL-6, which serve as pivotal mediators in the pathogenesis of ALI, are primarily secreted by activated alveolar macrophages, neutrophils, and lung structural cells. […] In this study, RAW264.7 cells were treated with LPS (0.5 μg mL^−1) and varying concentrations of 3g or 3k for 24 hours. […] This mechanistic understanding provides robust support for the therapeutic potential of the novel diaryl ketone scaffold in the ALI management.
(§3) Fig. 2 Compounds 3g and 3k inhibited the cytokine production of RAW264.7 cells stimulated by LPS. […] The levels of IL-6 (A) and TNF-α (B) in the culture medium were measured by ELISA kits. Data are expressed as mean ± SEM for each group of independent experiments (n = 3); *p < 0.05; **p < 0.01; ***p < 0.001 vs. model group.
(§4) Based on the initial screening results, compounds 3g and 3k were selected for further experimentation. […] The levels of TNF-α and IL-6 released into the macrophage supernatant were quantified using ELISA kits sourced from Elabscience (Wuhan, China), according to the manufacturer's guidelines.

[3] = test system: TNF-α; test: TNF-α secretion in LPS-stimulated RAW264.7 macrophages (ELISA); type: cell-based, murine; conditions: Mus musculus, LPS (0.5 μg/mL)-stimulated RAW264.7 cells, 24 h, read-out: IC50 for TNF-α inhibition
Method: as §2, §3, §4

[4] = test system: NF-κB p65; test: Immunofluorescence of NF-κB p65 in lung tissues; type: in vivo, C57BL/6 mice; conditions: SWCNT-induced ALI mice, 50 mg/kg once a day for 3 d
Source text: To elucidate the mechanism underlying the modulation of NF-κB pathway, we employed immunofluorescence techniques to scrutinize the spatiotemporal dynamics of NF-κB p65 within lung tissues. The canonical NF-κB signaling cascade involves IκB kinase (IKK)-mediated phosphorylation of IκBα, triggering its ubiquitination and proteasomal degradation. This process releases the NF-κB p65/p50 heterodimer, enabling its nuclear translocation and subsequent initiation of pro-inflammatory mediator transcription.[35,36] […] This finding implies a pharmacological activity that is contingent upon the structural characteristics of the compounds.
as §1, with “SWCNT. The SWCNT model group was administered a one-time tracheal drip of 50 μL of SWCNT suspension containing 40 μg of SWCNT (approximately 1.86 mg per kg body weight) per mouse to model ALI.” for “SWCNT.”
Mouse lung tissues were isolated and stored in a 4% paraformaldehyde solution. […] Representative images of each sample were acquired (magnification ×200) and analyzed using the ImageJ software. […]

[5] = test system: IL-6; test: IL-6 in BALF of ALI mice (ELISA); type: in vivo, C57BL/6 mice; conditions: SWCNT-induced ALI mice, 50 mg per kg dose
Method: To confirm the in vivo inhibitory effects of 3g and 3k, we examined the levels of pro-inflammatory cytokines in bronchoalveolar lavage fluid (BALF) from ALI mice.
Based on the results of the previous in vitro experiments, 3g and 3k were chosen for animal experiments. 3g was dissolved in 5% DMSO and 3k was dissolved in 0.5% sodium carboxymethyl cellulose (CMC-Na). Male C57BL/6 mice were randomly divided into four groups of ten animals each: CON, single-walled carbon nanotubes (SWCNT) model, 3k (50 mg kg^−1) + SWCNT, 3g (50 mg kg^−1) + SWCNT. The SWCNT model group was administered a one-time tracheal drip of 50 μL of SWCNT suspension containing 40 μg of SWCNT (approximately 1.86 mg per kg body weight) per mouse to model ALI. A blank tracheal drip of PBS was administered to the negative control. 3k + SWCNT and 3g + SWCNT groups were administered 3k or 3g of 50 mg per kg body weight once a day for 3d. The animals in the CON group received the same volume of 0.5% CMC-Na. The 1st dose was administered 1 h before modeling to avoid excessive damage to mice. The control and model groups were injected intraperitoneally with a blank solvent. […]
The collected bronchoalveolar lavage fluid (BALF) was centrifuged to obtain the supernatant. The concentrations of TNF-α and IL-6 in BALF were determined using ELISA. […]

[6] = test system: phosphorylated IκB and p65; test: Western blot of NF-κB pathway in lung tissues; type: in vivo, C57BL/6 mice; conditions: SWCNT-induced ALI mice, 50 mg/kg once a day for 3 d
Source text: The expression levels of phosphorylated IκB and p65 were meticulously examined. To further delve into and evaluate the impact of compounds 3g and 3k on the NF-κB signaling pathway within SWCNT-induced ALI murine models, western blotting analysis was used to comprehensively assess the activation status of the NF-κB pathway in lung tissues.
Collectively, novel pyrrolo[2,1-a]isoquinoline aryl ketones represent promising anti-inflammatory candidates for SWCNT-induced pulmonary injury, functioning through NF-κB pathway regulation.
Based on the results of the previous in vitro experiments, 3g and 3k were chosen for animal experiments. 3g was dissolved in 5% DMSO and 3k was dissolved in 0.5% sodium carboxymethyl cellulose (CMC-Na). Male C57BL/6 mice were randomly divided into four groups of ten animals each: CON, single-walled carbon nanotubes (SWCNT) model, 3k (50 mg kg^−1) + SWCNT, 3g (50 mg kg^−1) + SWCNT. The SWCNT model group was administered a one-time tracheal drip of 50 μL of SWCNT suspension containing 40 μg of SWCNT (approximately 1.86 mg per kg body weight) per mouse to model ALI. […]
Lung tissue samples were collected from each mouse. […] The protein concentration was accurately determined using the BCA method. […] ECL chemiluminescent reagent was used to visualize the protein bands, and the gray values of the bands were analyzed using ImageJ software.

SMILES | Circulating lymphocyte (LY) count [1] | IL-6 secretion [2] | IC50 [3] [µM] | p65 fluorescence intensity and nuclear translocation in lung tissue ([4]; 50 mg/kg) | IL-6 level in BALF [5] | Phosphorylated IκB and p65 levels in lung tissue [6] | p65 fluorescence intensity and nuclear translocation in lung tissue [4]
O=C(c1ccc(F)cc1)c1ccc2c3ccccc3ccn12 [3g] | significantly reduced circulating LY populations | suppressed cytokine secretion in a dose-dependent manner | 7.85 | reduced fluorescence intensity and suppressed nuclear translocation of p65; also recorded: significantly enhanced efficacy in inhibiting he nuclear translocation of p65 | effectively suppressed the release of TNF-α and IL-6 | substantially suppressed these phosphorylation events | –
Cc1ccccc1C(=O)c1ccc2c3ccccc3ccn12 [3k] | significantly reduced circulating LY populations | suppressed cytokine secretion in a dose-dependent manner | 8.3 | – | effectively suppressed the release of TNF-α and IL-6 | substantially suppressed these phosphorylation events | reduced fluorescence intensity and suppressed nuclear translocation of p65
